For one compound, Activity and inhibition results are on record in ChEMBL document CHEMBL1221220, “Transport and signaling via the amino acid binding site of the yeast Gap1 amino acid transceptor” (Nat Chem Biol, 2009).

Where a chain is given by its changes, count along the chain named. Activity calls are given as the source filed them. The calls are words filed in the database; no cut-off is given here.

Test [1] has as its system T1, General amino-acid permease GAP1 (Saccharomyces cerevisiae), P19145 [L383C].
T1 sequence (whole entry): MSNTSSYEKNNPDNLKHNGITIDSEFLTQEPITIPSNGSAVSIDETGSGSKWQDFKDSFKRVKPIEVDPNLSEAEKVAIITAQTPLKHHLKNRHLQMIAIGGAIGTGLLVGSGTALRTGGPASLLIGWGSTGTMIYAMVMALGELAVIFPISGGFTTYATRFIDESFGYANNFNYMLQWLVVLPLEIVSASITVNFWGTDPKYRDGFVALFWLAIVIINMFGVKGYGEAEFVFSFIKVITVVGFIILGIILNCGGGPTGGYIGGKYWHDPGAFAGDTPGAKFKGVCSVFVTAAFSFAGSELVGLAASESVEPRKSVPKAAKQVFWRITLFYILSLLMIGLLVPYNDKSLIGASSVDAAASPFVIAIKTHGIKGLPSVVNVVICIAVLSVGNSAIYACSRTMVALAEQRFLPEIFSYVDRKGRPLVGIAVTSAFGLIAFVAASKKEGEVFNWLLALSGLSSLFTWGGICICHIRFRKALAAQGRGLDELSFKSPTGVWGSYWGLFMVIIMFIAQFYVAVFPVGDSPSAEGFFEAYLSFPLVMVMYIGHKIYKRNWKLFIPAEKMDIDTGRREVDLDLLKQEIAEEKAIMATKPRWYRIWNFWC
The test is described as follows: Activation of yeast Gap1 L383C mutant-mediated amino acid uptake at 10 mM.

The test system of test [2] is General amino-acid permease GAP1 (Saccharomyces cerevisiae), P19145 [S392C]. Kind of test: Inhibition of yeast Gap1 S392C mutant-mediated trehalose activation at 10 mM.
General amino-acid permease GAP1 (Saccharomyces cerevisiae), P19145 [S392C], sequence (P19145 whole entry S392C): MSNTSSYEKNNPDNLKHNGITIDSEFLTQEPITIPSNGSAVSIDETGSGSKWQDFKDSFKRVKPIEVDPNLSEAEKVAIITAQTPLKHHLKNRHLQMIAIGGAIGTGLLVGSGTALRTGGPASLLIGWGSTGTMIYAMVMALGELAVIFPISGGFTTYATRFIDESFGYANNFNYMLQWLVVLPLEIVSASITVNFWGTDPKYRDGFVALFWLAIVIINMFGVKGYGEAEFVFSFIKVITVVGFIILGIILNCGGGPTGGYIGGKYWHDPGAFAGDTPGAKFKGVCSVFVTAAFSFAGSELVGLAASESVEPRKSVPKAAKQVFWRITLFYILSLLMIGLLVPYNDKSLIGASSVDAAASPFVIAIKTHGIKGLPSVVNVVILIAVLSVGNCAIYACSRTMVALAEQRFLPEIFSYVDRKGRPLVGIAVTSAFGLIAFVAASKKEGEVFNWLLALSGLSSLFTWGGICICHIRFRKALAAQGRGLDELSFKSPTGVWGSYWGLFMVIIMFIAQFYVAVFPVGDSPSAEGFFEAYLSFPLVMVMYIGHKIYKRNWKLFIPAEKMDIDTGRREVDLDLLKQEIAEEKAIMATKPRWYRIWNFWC
Test [3] has as its system T2, General amino-acid permease GAP1 (Saccharomyces cerevisiae), P19145 [N391C].
T2 sequence (whole entry): T1 sequence (whole entry) with C383L, N391C
Kind of test: Induction of yeast Gap1 N391C mutant-mediated trehalose activation at 2 mM in presence of 10 mM MTSEA treated before compound addition.

The test system of test [4] is T3, General amino-acid permease GAP1 (Saccharomyces cerevisiae), P19145 [S398C].
T3 sequence (whole entry): T1 sequence (whole entry) with C383L, S398C
The test is described as follows: Induction of yeast Gap1 S398C mutant-mediated trehalose activation at 2 mM in presence of 10 mM MTSEA treated before compound addition.

Test [5] relates to T4, General amino-acid permease GAP1 (Saccharomyces cerevisiae), P19145 [V381C].
T4 sequence (whole entry): T1 sequence (whole entry) with V381C, C383L
The test is described as follows: Induction of yeast Gap1 V381C mutant-mediated amino acid uptake at 2 mM in presence of 10 mM MTSEA treated before compound addition.

For the compound `NC(=O)NCCC[C@H](N)C(=O)O`, the result in test [1] was inactive. In addition, the inhibition entry in test [2], in test [3] and in test [4] was “Active” throughout. In test [5], the result was Active.
